Where a SMILES comes first, the peptide text is derived from it. Bridges are numbered along the chain shown (N, C = ends). [ ]: non-standard residue; d: D form. The star is where a group is joined. hPhe(3,5-F2-4-CF3) = N[C@@H](CCc1cc(F)c(C(F)(F)F)c(F)c1)C(=O)O; NPrPhe(4-CF3) = CCCN[C@@H](Cc1ccc(C(F)(F)F)cc1)C(=O)O; NMeGly(cPent) = CN[C@H](C(=O)O)C1CCCC1; NMeD = CN[C@@H](CC(=O)O)C(=O)O; NMeL = CN[C@@H](CC(C)C)C(=O)O; αMeS = C[C@](N)(CO)C(=O)O; Morpholide = C1CN(*)CCO1; Aze = O=C(O)[C@@H]1CCN1; Sar = CNCC(=O)O
Legend:
[1] = target: GDP-bound KRAS wild-type protein (Homo sapiens, UniProt P01116); experiment: Binding to KRAS by surface plasmon resonance (SPR), dissociation constant KD
Procedure, shortened: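 Each cycle, GDP-bound biotin-Avi RAS was captured (~100–300 RU), compound concentrations were injected low to high for 75 s each at 100 µL/min, then the chip was regenerated. Buffer: HBS pH 7.4, 10 mM MgCl2, 10 µM GDP, 1 mM DTT, 4% DMSO; 30°C. KD from a 1:1 binding model.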

[2] = target: GDP-bound NRAS wild-type protein (Homo sapiens, UniProt P01111); experiment: Binding to NRAS by surface plasmon resonance (SPR), KD and KD ratio to KRAS
Procedure, shortened: (§1)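 Affinity is measured by surface plasmon resonance at 30°C against captured, GDP-loaded RAS carrying a biotinylated Avi tag. Compounds are titrated by single-cycle kinetics, and KD comes from a 1:1 fit.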

HRAS wild-type protein = HRAS wild-type protein (Homo sapiens, UniProt P01112); experiment: Binding to HRAS by surface plasmon resonance (SPR), KD and KD ratio to KRAS
Procedure, shortened: as §1

[3] = tested on: human lung cancer strain NCI-H441; assay type: cell-based
Procedure, shortened: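 Readout: […] after the ATP-based reagent. Compound: serial dilutions in dimethyl sulfoxide.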

[4] = Single Cycle Kinetics, 1:1 binding model
[5] = ratio of KD value for GDP-bound NRAS wild-type protein to KD value for KRAS (SPR)
[6] = ratio of KD value for HRAS wild-type protein to KD value for KRAS (SPR)
[7] = ratio of KD for GDP-bound NRAS wild-type protein to KD for KRAS
[8] = ratio of KD for HRAS wild-type protein to KD for KRAS
[9] = ratio of the KD value with respect to GDP-bound NRAS wild-type protein to the KD value with respect to KRAS
[10] = ratio of the KD value with respect to HRAS wild-type protein to the KD value with respect to KRAS

HRAS wild-type protein, sequence (P01112 whole entry): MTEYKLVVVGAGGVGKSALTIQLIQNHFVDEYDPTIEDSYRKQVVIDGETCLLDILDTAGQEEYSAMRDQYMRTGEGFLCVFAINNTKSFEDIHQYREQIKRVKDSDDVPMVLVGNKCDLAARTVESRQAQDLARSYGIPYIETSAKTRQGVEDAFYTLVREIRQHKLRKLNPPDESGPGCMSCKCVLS
GDP-bound NRAS wild-type protein, sequence (P01111 whole entry): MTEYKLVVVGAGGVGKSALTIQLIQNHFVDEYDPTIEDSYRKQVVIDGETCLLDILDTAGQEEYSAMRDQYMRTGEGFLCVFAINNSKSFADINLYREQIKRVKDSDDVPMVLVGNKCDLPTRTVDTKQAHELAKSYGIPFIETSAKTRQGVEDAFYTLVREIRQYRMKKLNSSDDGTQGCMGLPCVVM
GDP-bound KRAS wild-type protein, sequence (P01116 1-188 isoform P01116-2): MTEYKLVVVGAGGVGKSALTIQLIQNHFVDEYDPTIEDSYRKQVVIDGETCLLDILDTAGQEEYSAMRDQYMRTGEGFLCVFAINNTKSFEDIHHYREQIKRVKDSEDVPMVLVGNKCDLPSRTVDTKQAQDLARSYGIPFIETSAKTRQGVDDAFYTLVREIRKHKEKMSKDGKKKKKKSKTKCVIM

SMILES | Kd [1, 4] [nM] | NRAS /KRAS [2, 5] | HRAS /KRAS (HRAS wild-type protein; [6]) | IC50 [3] [nM] | Kd ([1]; 1:1 binding model) [nM] | NRAS /KRAS [2, 7] | HRAS /KRAS (HRAS wild-type protein; [8]) | NRAS /KRAS [2, 9] | HRAS /KRAS (HRAS wild-type protein; [10]) | Kd ([1]; Single Cycle Kinetics) [nM]
CCCN(C)C(=O)[C@@H]1CC(=O)N(C)[C@@H](CC)C(=O)N[C@@H]([C@@H](C)CC)C(=O)N(C)CC(=O)N(C)[C@H]2C/C=C\CCN(C2=O)[C@@H](Cc2ccc(C(F)(F)F)cc2)C(=O)N(C)CC(=O)N[C@@H](CCc2ccc(C(F)(F)F)c(OC)c2)C(=O)N2C[C@H](OCC)C[C@H]2C(=O)NC2(CC(C)(C)C2)C(=O)N(C)[C@@H](C2CCCC2)C(=O)N1C [PP1654] | 0.097 | A (a compound having 10 or more and less than 20 is denoted as A) | A (a compound having 10 or more and less than 20 is denoted as A) | 2.5 |  |  |  |  |  | 
CCC[C@H]1C(=O)N[C@@H](C2CCCCC2)C(=O)N(C)CC(=O)N(C)[C@H]2C/C=C\CCN(C2=O)[C@@H](Cc2ccc(C)cc2)C(=O)N(C)CC(=O)N[C@@H](CCc2ccc(C(F)(F)F)c(Cl)c2)C(=O)N2C[C@H](OCC)C[C@H]2C(=O)NC2(CC(C)(C)C2)C(=O)N(C)[C@@H](C2CCCC2)C(=O)N(C)[C@H](C(=O)N(C)C)CC(=O)N1C [PP2998] |  |  |  | 8.3 | 0.43 | A (a compound having 10 or more and less than 20 is denoted as A) | AA (a compound having 20 or more is denoted as AA) |  |  | 
CCO[C@@H]1C[C@H]2C(=O)NC3(CCC3)C(=O)N(C)[C@@H](C(CC)CC)C(=O)N(C)[C@H](C)CC(=O)N(C)[C@@H](CC3CC3)C(=O)N[C@@H]([C@@H](C)CC)C(=O)N(C)CC(=O)N(C)[C@H]3C/C=C\CCN(C3=O)[C@@H](Cc3ccc(F)cc3C)C(=O)N(C)CC(=O)N[C@@H](CCc3cc(F)c(C(F)(F)F)c(F)c3)C(=O)N2C1 [PP1520] | 6.6 | A (a compound having 10 or more and less than 20 is denoted as A) | A (a compound having 10 or more and less than 20 is denoted as A) | 575 |  |  |  |  |  | 
CC[C@H](C)[C@@H]1NC(=O)[C@H](COC)N(C)C(=O)C[C@@H](C(=O)N(C)C)N(C)C(=O)[C@H](C2CCCC2)N(C)C(=O)C2(CC(C)(C)C2)NC(=O)CNC(=O)[C@H](CCc2ccc(C(F)(F)F)c(Cl)c2)NC(=O)CN(C)C(=O)[C@H](Cc2ccc(C(F)(F)F)cc2)N2CC/C=C\C[C@@H](C2=O)N(C)C(=O)CN(C)C1=O [PP3134] |  |  |  | 812 | 0.33 | AA (a compound having 20 or more is denoted as AA) | A (a compound having 10 or more and less than 20 is denoted as A) |  |  | 
CC[C@H](C)[C@@H]1NC(=O)[C@H](CC2CC2)N(C)C(=O)C[C@@H](C(=O)N(C)CC)N(C)C(=O)[C@H](C2CCCC2)N(C)C(=O)C2(CC(C)(C)C2)NC(=O)[C@@H]2C[C@@H](C)CN2C(=O)[C@H](CCc2ccc(C(F)(F)F)c(OC)c2)NC(=O)CN(C)C(=O)[C@H](Cc2ccc(C)cc2)N2CC/C=C\C[C@@H](C2=O)N(C)C(=O)CN(C)C1=O [PP1902] | 0.2 |  |  | 12.5 |  |  |  | A (a compound having 10 or more and less than 20 is denoted as A) | A (a compound having 10 or more and less than 20 is denoted as A) | 
CCO[C@@H]1C[C@H]2C(=O)NC3(CC(C)(C)C3)C(=O)N(C)[C@@H](C3CCCC3)C(=O)N(C)[C@H](C(=O)N(C)CC)CC(=O)N(C)[C@@H](CC(C)C)C(=O)N[C@@H]([C@@H](C)CC)C(=O)N(C)CC(=O)N(C)[C@H]3C/C=C\CCN(C3=O)[C@@H](Cc3ccc(C(F)F)cc3)C(=O)N(C)CC(=O)N[C@@H](CCc3ccc(C(F)(F)F)c(CC)c3)C(=O)N2C1 [PP3141] |  |  |  | 9.8 | 0.25 | A (a compound having 10 or more and less than 20 is denoted as A) | A (a compound having 10 or more and less than 20 is denoted as A) |  |  | 
CCO[C@@H]1C[C@H]2C(=O)NC3(CCC3)C(=O)N(C)[C@@H](C3CCCC3)C(=O)N(C)[C@H](C(=O)N(C)C)CC(=O)N(C)[C@@H](CC)C(=O)N[C@@H]([C@@H](C)CC)C(=O)N(C)CC(=O)N(C)[C@H]3CCCCCN(C3=O)[C@@H](Cc3nccs3)C(=O)N(C)CC(=O)N[C@@H](CCc3cc(F)c(C(F)(F)F)c(F)c3)C(=O)N2C1 [PP0913] |  |  |  | 206 |  | B (a compound having 3 or more and less than 10 is denoted as B) | B (a compound having 3 or more and less than 10 is denoted as B) |  |  | 1.1
CCCN1C(=O)CN(C)C(=O)[C@@H]2CCN2C(=O)[C@H]([C@@H](C)CC)NC(=O)[C@H](CC(C)C)N(C)C(=O)C[C@@H](C(=O)N2CCOCC2)N(C)C(=O)[C@H](C2CCCC2)N(C)C(=O)[C@](C)(COC)NC(=O)[C@@H]2CCCN2C(=O)[C@H](CCc2cc(F)c(C(F)(F)F)c(F)c2)NC(=O)CN(C)C(=O)[C@@H]1Cc1ccc(C(F)(F)F)cc1 [PP0779] ([NMeL]I[Aze][Sar][NPrPhe(4-CF3)][Sar][hPhe(3,5-F2-4-CF3)]P[αMeS](Me)[NMeGly(cPent)][NMeD]-Morpholide; lactam N-11) |  |  |  | 364 |  | B (a compound having 3 or more and less than 10 is denoted as B) | B (a compound having 3 or more and less than 10 is denoted as B) |  |  | 5.1
CCO[C@@H]1C[C@H]2C(=O)NC3(CCC3)C(=O)N(C)[C@@H](C3CCCC3)C(=O)N(C)[C@H](C)CC(=O)N(C)[C@@H](CC3CCCC3)C(=O)N[C@@H]([C@@H](C)CC)C(=O)N(C)CC(=O)N(C)[C@H]3C/C=C\CCN(C3=O)[C@@H](Cc3ccc(F)cc3)C(=O)N(C)CC(=O)N[C@@H](CCc3cc(F)c(C(F)(F)F)c(F)c3)C(=O)N2C1 [PP1492] | 0.94 | B (a compound having 3 or more and less than 10 is denoted as B) | B (a compound having 3 or more and less than 10 is denoted as B) | 129 |  |  |  |  |  | 
CCO[C@@H]1C[C@H]2C(=O)NC3(CCC3)C(=O)N(C)[C@@H](C3CCCC3)C(=O)N(C)[C@H](C)CC(=O)N(C)[C@@H](CC3CC3)C(=O)N[C@@H]([C@@H](C)CC)C(=O)N(C)CC(=O)N(C)[C@H]3C/C=C\CCN(C3=O)[C@@H](Cc3ccc(F)cc3C)C(=O)N(C)CC(=O)N[C@@H](CCc3cc(F)c(C(F)(F)F)c(F)c3)C(=O)N2C1 [PP1489] | 2.6 | B (a compound having 3 or more and less than 10 is denoted as B) | B (a compound having 3 or more and less than 10 is denoted as B) | 118 |  |  |  |  |  | 
CCO[C@@H]1C[C@H]2C(=O)NC3(CCC3)C(=O)N(C)[C@@H](C3CCCC3)C(=O)N(C)[C@H](C(=O)N3CCOCC3)CC(=O)N(C)[C@@H](CC(C)C)C(=O)N[C@@H]([C@@H](C)CC)C(=O)N(C)CC(=O)N(C)[C@H]3C[C@H]4C[C@H]4CN(C3=O)[C@@H](Cc3ccc(C(F)(F)F)cc3)C(=O)N(C)CC(=O)N[C@@H](CCc3cc(F)c(C(F)(F)F)c(F)c3)C(=O)N2C1 [PP0829] |  |  |  | 4.4 |  | B (a compound having 3 or more and less than 10 is denoted as B) | C (A compound having a KD ratio of 0.1 or more and less than 3 is denoted as C) |  |  | 0.081
CCO[C@@H]1C[C@H]2C(=O)NC3(CCC3)C(=O)N(C)[C@@H](C3CCCC3)C(=O)N(C)[C@H](C(=O)N(C)CC)CC(=O)N(C)[C@@H](CC3CCCC3)C(=O)N[C@@H]([C@@H](C)CC)C(=O)N(C)CC(=O)N(C)[C@H]3C/C=C\CCN(C3=O)[C@@H](Cc3ccc(C(F)(F)F)cc3)C(=O)N(C)CC(=O)N[C@@H](CCc3ccc(C(F)(F)F)c(OC)c3)C(=O)N2C1 [PP1573] | 0.12 | A (a compound having 10 or more and less than 20 is denoted as A) | A (a compound having 10 or more and less than 20 is denoted as A) | 5.2 |  |  |  |  |  | 
CCC[C@@H]1C[C@H]2C(=O)NC3(CC(C)(C)C3)C(=O)N(C)[C@@H](C3CCCC3)C(=O)N(C)[C@H](C(=O)N(C)C)CC(=O)N(C)[C@@H](CCC)C(=O)N[C@@H]([C@@H](C)CC)C(=O)N(C)CC(=O)N(C)[C@H]3C/C=C\CCN(C3=O)[C@@H](Cc3ccc(C)cc3)C(=O)N(C)CC(=O)N[C@@H](CCc3ccc(C(F)(F)F)c(Cl)c3)C(=O)N2C1 [PP2214] | 0.3 |  |  | 29.6 |  |  |  | A (a compound having 10 or more and less than 20 is denoted as A) | A (a compound having 10 or more and less than 20 is denoted as A) | 

From patent EP4603105A1, “PHARMACEUTICAL COMPOSITION CONTAINING CYCLIC COMPOUND HAVING SELECTIVE KRAS INHIBITORY EFFECT AGAINST HRAS AND NRAS” (CHUGAI SEIYAKU KABUSHIKI KAISHA, priority 2022, dated 2024)
